This is an account of results in patent US20250122160A1, “PROTEIN TYROSINE PHOSPHATASE INHIBITORS AND METHODS OF USE THEREOF” (Calico Life Sciences LLC, priority 0001, published 2025).

Assay [1] deals with T1, His tagged full-length PTPN1 protein (Homo sapiens, UniProt P18031).
T1 construct: made in house
T1 sequence (P18031 with tags, fused parts or gaps): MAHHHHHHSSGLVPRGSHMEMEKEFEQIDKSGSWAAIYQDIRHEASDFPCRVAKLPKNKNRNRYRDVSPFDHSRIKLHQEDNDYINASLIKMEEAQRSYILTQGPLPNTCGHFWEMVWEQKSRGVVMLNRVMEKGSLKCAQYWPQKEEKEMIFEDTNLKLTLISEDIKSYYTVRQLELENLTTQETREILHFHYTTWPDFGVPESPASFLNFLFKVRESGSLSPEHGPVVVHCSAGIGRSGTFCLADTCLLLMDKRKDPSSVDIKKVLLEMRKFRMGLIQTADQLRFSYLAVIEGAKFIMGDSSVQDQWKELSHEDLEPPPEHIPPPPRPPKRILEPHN
Put plainly: Mobility shift assay (MSA) to determine potency of PTPN1 inhibitors. The format is biochemical. The conditions noted are these: 0.5 nM enzyme, 2 μM substrate. In a few lines: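 His-tagged full-length human PTPN1 (0.5 nM) preincubated with compound 10 min at room temperature in pH 7.5 HEPES buffer with EGTA, EDTA, Tween 20 and DTT. Dephosphorylation of 2 μM fluorescent phospho-insulin-receptor peptide over 10 min measured by mobility shift. IC50 from % inhibition across a 12-point, 1:3 dilution series.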

Assay [2] deals with T2, His tagged PTPN2 (TC45) protein (Homo sapiens, UniProt P17706).
T2 construct: made in house
T2 sequence (P17706 with tags, fused parts or gaps isoform P17706-2): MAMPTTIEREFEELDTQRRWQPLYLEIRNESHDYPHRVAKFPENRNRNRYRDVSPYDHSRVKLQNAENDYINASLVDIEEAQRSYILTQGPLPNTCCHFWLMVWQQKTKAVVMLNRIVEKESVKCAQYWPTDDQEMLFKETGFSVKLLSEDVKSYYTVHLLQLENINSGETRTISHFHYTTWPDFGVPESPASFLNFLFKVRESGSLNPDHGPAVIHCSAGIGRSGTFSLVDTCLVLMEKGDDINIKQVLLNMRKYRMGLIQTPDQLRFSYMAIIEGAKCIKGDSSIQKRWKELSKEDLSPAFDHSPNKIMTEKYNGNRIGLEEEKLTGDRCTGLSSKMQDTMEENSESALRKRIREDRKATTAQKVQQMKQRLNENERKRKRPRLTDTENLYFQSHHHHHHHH
Description: Mobility shift assay (MSA) to determine potency of PTPN2 inhibitors. The format is biochemical. The note with it: 0.5 nM enzyme, 2 μM substrate. In a few lines:
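His-tagged human PTPN2 (TC45), 0.5 nM, preincubated 10 min at room temperature with compound (12-point, 1:3 dilutions) in HEPES pH 7.5 buffer with EGTA, EDTA, Tween 20 and DTT. Then 2 μM OG488-labelled phospho-insulin-receptor peptide was added for 10 min and quenched. % conversion was read by mobility shift, and IC50 came from % inhibition.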

What is called IC50 is the concentration that gives 50% inhibition. For `O=C1CN(c2c(O)cc3c(c2F)CC(O)CC3)S(=O)(=O)N1` (centres unmarked) [Compound 335, 5-(1-fluoro-3,7-dihydroxy-5,6,7,8-tetrahydronaphthalen-2-yl)-1λ^6,2,5-thiadiazolidine-1,1,3-trione], the IC50 in assay [1] and in assay [2] was 10 to 100 nM throughout.
Turning to `[2H]C([2H])([2H])C([2H])([2H])C([2H])([2H])C([2H])([2H])NC1CCc2cc(O)c(N3CC(=O)NS3(=O)=O)c(F)c2C1` (centres unmarked) [Compound 336, 5-{7-[(^2H9)butylamino]-1-fluoro-3-hydroxy-5,6,7,8-tetrahydronaphthalen-2-yl}-1λ^6,2,5-thiadiazolidine-1,1,3-trione], the IC50 in assay [1] and in assay [2] was 1 to 10 nM each time.
In the case of `NCC1(O)CCc2cc(O)c(N3CC(=O)NS3(=O)=O)c(F)c2C1` (centres unmarked) [Compound 337, 5-[7-(aminomethyl)-1-fluoro-3,7-dihydroxy-5,6,7,8-tetrahydronaphthalen-2-yl]-1λ^6,2,5-thiadiazolidine-1,1,3-trione], the half-inhibitory concentration (IC50) in assay [1] and in assay [2] was 10 to 100 nM throughout.
`O=C1CN(c2c(O)cc3c(c2F)C[C@H](NCCC2(CO)CCC2)CC3)S(=O)(=O)N1` [Compound 338, 5-[(7R)-1-fluoro-3-hydroxy-7-({2-[1-(hydroxymethyl)cyclobutyl]ethyl}amino)-5,6,7,8-tetrahydronaphthalen-2-yl]-1λ^6,2,5-thiadiazolidine-1,1,3-trione]: the IC50 in assay [1] was 1 to 10 nM; in assay [2] it was less than 1 nM.
In the same order, the values of `CC(C)CNCC1(O)CCc2cc(O)c(N3CC(=O)NS3(=O)=O)c(F)c2C1` (centres unmarked) [Compound 339, 5-(1-fluoro-3,7-dihydroxy-7-{[(2-methylpropyl)amino]methyl}-5,6,7,8-tetrahydronaphthalen-2-yl)-1λ^6,2,5-thiadiazolidine-1,1,3-trione] are 10 to 100 nM and 10 to 100 nM.
In the same order, the values of `[2H]C1([2H])Cc2cc(O)c(N3CC(=O)NS3(=O)=O)c(F)c2C([2H])([2H])C1([2H])NCCC(C)C` (centres unmarked) [Compound 340, 5-{1-fluoro-3-hydroxy-7-[(3-methylbutyl)amino](6,6,7,8,8-^2H5)-5,6,7,8-tetrahydronaphthalen-2-yl}-1λ^6,2,5-thiadiazolidine-1,1,3-trione] are 1 to 10 nM and less than 1 nM.
The like results for `CC(C)(C)OC(=O)N[C@@H]1CCc2cc(O)c(N3CC(=O)NS3(=O)=O)c(F)c2C1` [Compound 341, tert-butyl [(2R)-8-fluoro-6-hydroxy-7-(1,1,4-trioxo-1λ^6,2,5-thiadiazolidin-2-yl)-1,2,3,4-tetrahydronaphthalen-2-yl]carbamate] were, in that order, 10 to 100 nM and 10 to 100 nM.
In the case of `CC1(CN[C@@H]2CCc3cc(O)c(N4CC(=O)NS4(=O)=O)c(F)c3C2)COC1` [Compound 344, 5-[(7R)-1-fluoro-3-hydroxy-7-{[(3-methyloxetan-3-yl)methyl]amino}-5,6,7,8-tetrahydronaphthalen-2-yl]-1λ^6,2,5-thiadiazolidine-1,1,3-trione], the values for the IC50 in assay [1] and in assay [2] were 10 to 100 nM and 1 to 10 nM, respectively.
The like results for `Cn1cccc1CN[C@@H]1CCc2cc(O)c(N3CC(=O)NS3(=O)=O)c(F)c2C1` [Compound 345, 5-[(7R)-1-fluoro-3-hydroxy-7-{[(1-methyl-1H-pyrrol-2-yl)methyl]amino}-5,6,7,8-tetrahydronaphthalen-2-yl]-1λ^6,2,5-thiadiazolidine-1,1,3-trione] were, in that order, 10 to 100 nM and 10 to 100 nM.
The like results for `Cn1ccc(CN[C@@H]2CCc3cc(O)c(N4CC(=O)NS4(=O)=O)c(F)c3C2)c1` [Compound 346, 5-[(7R)-1-fluoro-3-hydroxy-7-{[(1-methyl-1H-pyrrol-3-yl)methyl]amino}-5,6,7,8-tetrahydronaphthalen-2-yl]-1λ^6,2,5-thiadiazolidine-1,1,3-trione] were, in that order, 10 to 100 nM and 1 to 10 nM.
With `O=C1CN(c2c(O)cc3c(c2F)C[C@H](NCc2cccnc2)CC3)S(=O)(=O)N1` [Compound 347, 5-[(7R)-1-fluoro-3-hydroxy-7-{[(pyridin-3-yl)methyl]amino}-5,6,7,8-tetrahydronaphthalen-2-yl]-1λ^6,2,5-thiadiazolidine-1,1,3-trione], the IC50 in assay [1] and in assay [2] was 10 to 100 nM each time.
Turning to `CC(CN[C@@H]1CCc2cc(O)c(N3CC(=O)NS3(=O)=O)c(F)c2C1)C(F)(F)F` (stereo partly drawn) [Compound 348, 5-{(7R)-1-fluoro-3-hydroxy-7-[(3,3,3-trifluoro-2-methylpropyl)amino]-5,6,7,8-tetrahydronaphthalen-2-yl}-1λ^6,2,5-thiadiazolidine-1,1,3-trione], the IC50 was in the range of 10 to 100 nM in assay [1] and 1 to 10 nM in assay [2].
Turning to `O=C1CN(c2c(O)cc3c(c2F)C[C@H](NCc2cccnn2)CC3)S(=O)(=O)N1` [Compound 349, 5-[(7R)-1-fluoro-3-hydroxy-7-{[(pyridazin-3-yl)methyl]amino}-5,6,7,8-tetrahydronaphthalen-2-yl]-1λ^6,2,5-thiadiazolidine-1,1,3-trione], the IC50 in assay [1] and in assay [2] was 10 to 100 nM each time.
As for `O=C1CN(c2c(O)cc3c(c2F)C[C@H](NCC2CCCCO2)CC3)S(=O)(=O)N1` (stereo partly drawn) [Compound 350, 5-[(7R)-1-fluoro-3-hydroxy-7-{[(oxan-2-yl)methyl]amino}-5,6,7,8-tetrahydronaphthalen-2-yl]-1λ^6,2,5-thiadiazolidine-1,1,3-trione], the IC50 in assay [1] is 10 to 100 nM; in assay [2] it was 1 to 10 nM.
The like results for `Cc1cc(CN[C@@H]2CCc3cc(O)c(N4CC(=O)NS4(=O)=O)c(F)c3C2)no1` [Compound 351, 5-[(7R)-1-fluoro-3-hydroxy-7-{[(5-methyl-1,2-oxazol-3-yl)methyl]amino}-5,6,7,8-tetrahydronaphthalen-2-yl]-1λ^6,2,5-thiadiazolidine-1,1,3-trione] were, in that order, 10 to 100 nM and 10 to 100 nM.
The like results for `O=C1CN(c2c(O)cc3c(c2F)C[C@H](NCC2CCCOC2)CC3)S(=O)(=O)N1` (stereo partly drawn) [Compound 352, 5-[(7R)-1-fluoro-3-hydroxy-7-{[(oxan-3-yl)methyl]amino}-5,6,7,8-tetrahydronaphthalen-2-yl]-1λ^6,2,5-thiadiazolidine-1,1,3-trione] were, in that order, 1 to 10 nM and 1 to 10 nM.
In the same order, the values of `N#CC1CC1CN[C@@H]1CCc2cc(O)c(N3CC(=O)NS3(=O)=O)c(F)c2C1` (stereo partly drawn) [Compound 353, 2-({[(2R)-8-fluoro-6-hydroxy-7-(1,1,4-trioxo-1λ^6,2,5-thiadiazolidin-2-yl)-1,2,3,4-tetrahydronaphthalen-2-yl]amino}methyl)cyclopropane-1-carbonitrile] are 10 to 100 nM and 1 to 10 nM.
Consider `CCOCCCN[C@@H]1CCc2cc(O)c(N3CC(=O)NS3(=O)=O)c(F)c2C1` [Compound 354, 5-{(7R)-7-[(3-ethoxypropyl)amino]-1-fluoro-3-hydroxy-5,6,7,8-tetrahydronaphthalen-2-yl}-1λ^6,2,5-thiadiazolidine-1,1,3-trione], for which the IC50 was 10 to 100 nM in assay [1] and 1 to 10 nM in assay [2].
On to `O=C1CN(c2c(O)cc3c(c2F)C[C@H](NCC2(C(F)F)CC2)CC3)S(=O)(=O)N1` [Compound 355, 5-[(7R)-7-({[1-(difluoromethyl)cyclopropyl]methyl}amino)-1-fluoro-3-hydroxy-5,6,7,8-tetrahydronaphthalen-2-yl]-1λ^6,2,5-thiadiazolidine-1,1,3-trione], for which the IC50 lay in the range of 10 to 100 nM in assay [1] and 1 to 10 nM in assay [2].
